Measured values as given in patent publication US10363239B2, “Method for inhibiting growth of cancer cells” (Pain Therapeutics, Inc., priority 2013, dated 2019).
Read-outs that look alike come from different tables or passages of the source.

Key:
[1] = target: FLNA pentapeptide of SEQ ID NO: 1 (Bn-VAKGL) (Homo sapiens, UniProt P21333); experiment: FITC-NLX-based FLNA screening assay (inhibition of FITC-naloxone binding to Bn-VAKGL on streptavidin plates); conditions: 10 nM FITC-NLX
mu opiate receptor (MOR) = experiment: MOR agonist activity using [35S]GTPγS binding assay in striatal membranes; assay type: biochemical; conditions: for MOR agonist activity ([35S]GTPγS binding), FLNA-Binding Compound as Agonist 1 μM + BFNA: 1 μM compound + 1 μM β-funaltrexamine
Outline: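 Striatal membranes (200 μg) were preincubated 5 min at 30 °C in HEPES pH 7.5 with 100 mM NaCl, 1 mM MgCl2 and 0.5 nM [35S]GTPγS, then 5 min more with 0.1–10 μM compound. Gαo was immunoprecipitated and bound radioactivity counted by scintillation.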

[2] = read-out: Percent Binding Inhibition, FLNA-binding compound 0.01 μM
[3] = read-out: Percent Binding Inhibition, FLNA-binding compound 0.1 μM
[4] = read-out: Percent Binding Inhibition, FLNA-binding compound 1 μM
[5] = 0.1 μM compound relative to DAMGO
[6] = 1 μM compound + BFNA relative to DAMGO + BFNA
[7] = 1 μM compound relative to DAMGO
[8] = Series C-1, 0.1 μM compound, relative to DAMGO
[9] = Series C-1, 0.1 μM compound, [35S]GTPγS binding to Gαo, striatal membranes
[10] = Series C-1, 1 μM compound + 1 μM β-FNA
[11] = Series C-1, 1 μM compound + β-FNA, relative to DAMGO + BFNA
[12] = Series C-1, 1 μM compound, relative to DAMGO
[13] = Series C-1, 1 μM compound, [35S]GTPγS binding to Gαo, striatal membranes
[14] = FLNA-binding compound 0.01 μM, read-out: Percent Binding Inhibition
[15] = FLNA-binding compound 0.1 μM, read-out: Percent Binding Inhibition
[16] = FLNA-binding compound 1 μM, read-out: Percent Binding Inhibition
[17] = Series C-2, 0.1 μM compound, relative to DAMGO
[18] = Series C-2, 0.1 μM compound, [35S]GTPγS binding to Gαo, striatal membranes
[19] = Series C-2, 1 μM compound + 1 μM β-FNA
[20] = Series C-2, 1 μM compound + β-FNA, relative to DAMGO + BFNA
[21] = Series C-2, 1 μM compound, relative to DAMGO
[22] = Series C-2, 1 μM compound, [35S]GTPγS binding to Gαo, striatal membranes
[23] = Series B, 0.1 μM compound, relative to DAMGO
[24] = Series B, 0.1 μM compound, [35S]GTPγS binding to Gαo, striatal membranes
[25] = Series B, 1 μM compound + 1 μM β-FNA
[26] = Series B, 1 μM compound + β-FNA, relative to DAMGO + BFNA
[27] = Series B, 1 μM compound, relative to DAMGO
[28] = Series B, 1 μM compound, [35S]GTPγS binding to Gαo, striatal membranes

Row | SMILES | inhibition at 0.01 µM [1, 2] | inhibition at 0.1 µM [1, 3] | inhibition at 1 µM [1, 4] | MOR agonist activity ([35S]GTPγS binding), FLNA-Binding Compound as Agonist 0.1 μM (mu opiate receptor (MOR); 0.1 μM compound) | % DAMGO (0.1 μM) (mu opiate receptor (MOR); [5]) | MOR agonist activity ([35S]GTPγS binding), FLNA-Binding Compound as Agonist 1 μM (mu opiate receptor (MOR); 1 μM compound) | MOR agonist activity ([35S]GTPγS binding), FLNA-Binding Compound as Agonist 1 μM + BFNA (mu opiate receptor (MOR)) | % DAMGO + BFNA (mu opiate receptor (MOR); [6]) | % DAMGO (1 μM) (mu opiate receptor (MOR); [7]) | inhibition at 0.01 µM [1, 14] | inhibition at 0.1 µM [1, 15] | inhibition at 1 µM [1, 16] | also measured
1 | CC1CCC(C(C)C)C(OCC(O)CN(C(C)C)C(C)C)C1 (stereo not drawn) [Compound A0037] | 49.3% | 51.3% | 56.8% | 177.9% | 90.7% | 236.2% | 104.6% | 141.5% | 85.6% |  |  |  | 
2 | COc1ccc(N2CCN(CC(O)COC3CC(C)CCC3C(C)C)CC2)c(OC)c1 (stereo not drawn) [Compound A0012] | 39.7% | 49.6% | 54.4% | 149.3% | 99.9% | 185.7% | 122.4% | 461.9% | 80.7% |  |  |  | 
3 | COc1ccc(OCC(O)CN2CC(C)OC(C)C2)cc1 (stereo not drawn) [Compound A0048] | 38.5% | 44% | 46.9% | 233.7% | 119.1% | 302.9% | 167.2% | 226.3% | 109.7% |  |  |  | 
4 | COc1ccc(NC(=O)N2CCC3(CC2)OCCN3S(=O)(=O)c2ccc(OC)cc2)cc1 [Compound C0041] | 38.3% | 47% | 51.2% |  |  |  |  |  |  |  |  |  | % DAMGO (0.1 μM) (mu opiate receptor (MOR); [8]): 110.1%; Concentration of FLNA-Binding Compound as Agonist 0.1 μM (mu opiate receptor (MOR); [9]): 186.1%; Concentration of FLNA-Binding Compound as Agonist 1 μM + BFNA (mu opiate receptor (MOR); [10]): 95.5%; % DAMGO + BFNA (mu opiate receptor (MOR); [11]): 575.3%; % DAMGO (1 μM) (mu opiate receptor (MOR); [12]): 111.7%; Concentration of FLNA-Binding Compound as Agonist 1 μM (mu opiate receptor (MOR); [13]): 244.4%
5 | O=[N+]([O-])c1ccc(S(=O)(=O)N2CCC3(CC2)NCCO3)cc1 [Compound C0040] |  |  |  |  |  |  |  |  |  | 38.4% | 46.3% | 55.9% | % DAMGO (0.1 μM) (mu opiate receptor (MOR); [17]): 93.1%; MOR agonist activity, percent [35S]GTPγS binding at the stated compound concentration (mu opiate receptor (MOR); [18]): 145.8%; MOR agonist activity, percent [35S]GTPγS binding at the stated compound concentration (mu opiate receptor (MOR); [19]): 90.4%; % DAMGO + BFNA (mu opiate receptor (MOR); [20]): 277.3%; % DAMGO (1 μM) (mu opiate receptor (MOR); [21]): 133.2%; MOR agonist activity, percent [35S]GTPγS binding at the stated compound concentration (mu opiate receptor (MOR); [22]): 308.3%
6 | CC1CN(CC(O)COc2cccc(N(C)C)c2)CC(C)O1 (stereo not drawn) [Compound A0042] |  |  |  | 147.5% | 75.2% | 233.1% | 89.5% | 121.1% | 84.5% | 47.2% | 48.3% | 55.8% | 
7 | O=S(=O)(c1ccc(C(F)(F)F)cc1Br)N1CCC2(CC1)OCCN2S(=O)(=O)c1ccc(C(F)(F)F)cc1Br [Compound C0071] | 39.1% | 49.6% | 55.2% |  |  |  |  |  |  |  |  |  | % DAMGO (0.1 μM) (mu opiate receptor (MOR); [8]): 160.5%; Concentration of FLNA-Binding Compound as Agonist 0.1 μM (mu opiate receptor (MOR); [9]): 276.3%; Concentration of FLNA-Binding Compound as Agonist 1 μM + BFNA (mu opiate receptor (MOR); [10]): 177.1%; % DAMGO + BFNA (mu opiate receptor (MOR); [11]): 513.3%; % DAMGO (1 μM) (mu opiate receptor (MOR); [12]): 161.7%; Concentration of FLNA-Binding Compound as Agonist 1 μM (mu opiate receptor (MOR); [13]): 355.3%
8 | Cc1cccc(OCC(O)CN2CC(C)OC(C)C2)c1 (stereo not drawn) [Compound A0030] |  |  |  | 133.4% | 75.5% | 287.8% | 165.2% | 628.1% | 113.2% | 35.6% | 44.4% | 48.9% | 
9 | COc1c2c(cc3c1C(CC(=O)Cc1ccc(C#N)cc1)[N+](C)(C)CC3)OCO2 (stereo not drawn) [Compound B0012] | 39.4% | 46.9% | 51.7% |  |  |  |  |  |  |  |  |  | % DAMGO (0.1 μM) (mu opiate receptor (MOR); [23]): 97.8%; MOR agonist activity, percent [35S]GTPγS binding at the stated compound concentration (mu opiate receptor (MOR); [24]): 167.4%; MOR agonist activity, percent [35S]GTPγS binding at the stated compound concentration (mu opiate receptor (MOR); [25]): 145.1%; % DAMGO + BFNA (mu opiate receptor (MOR); [26]): 278.5%; % DAMGO (1 μM) (mu opiate receptor (MOR); [27]): 79.4%; MOR agonist activity, percent [35S]GTPγS binding at the stated compound concentration (mu opiate receptor (MOR); [28]): 212.0%
10 | CC1CN(CC(O)COc2ccc(Cl)cc2)CC(C)O1 (stereo not drawn) [Compound A0047] |  |  |  | 233.0% | 118.8% | 255.0% | 116.5% | 157.6% | 92.4% | 40.9% | 42.9% | 44.5% | 
11 | COc1cc(C(=O)CC2c3c(cc4c(c3OC)OCO4)CC[N+]2(C)C)cc(OC)c1OC (stereo not drawn) [Compound B0037] | 47.4% | 53% | 52.4% |  |  |  |  |  |  |  |  |  | % DAMGO (0.1 μM) (mu opiate receptor (MOR); [23]): 76.5%; MOR agonist activity, percent [35S]GTPγS binding at the stated compound concentration (mu opiate receptor (MOR); [24]): 119.8%; MOR agonist activity, percent [35S]GTPγS binding at the stated compound concentration (mu opiate receptor (MOR); [25]): 106.2%; % DAMGO + BFNA (mu opiate receptor (MOR); [26]): 325.8%; % DAMGO (1 μM) (mu opiate receptor (MOR); [27]): 80.4%; MOR agonist activity, percent [35S]GTPγS binding at the stated compound concentration (mu opiate receptor (MOR); [28]): 186.0%
12 | CC1CN(CC(O)COc2ccccc2)CC(C)O1 (stereo not drawn) [Compound A0025] | 39% | 49.8% | 53.2% | 58.6% | 33.2% | 138.7% | 52.2% | 198.5% | 54.5% |  |  |  | 
13 | O=S(=O)(c1ccccc1)N1CCC2(CC1)OCCN2S(=O)(=O)c1ccccc1 [Compound C0016] | 38.3% | 43.8% | 49.1% |  |  |  |  |  |  |  |  |  | % DAMGO (0.1 μM) (mu opiate receptor (MOR); [8]): 100.4%; Concentration of FLNA-Binding Compound as Agonist 0.1 μM (mu opiate receptor (MOR); [9]): 172.7%; Concentration of FLNA-Binding Compound as Agonist 1 μM + BFNA (mu opiate receptor (MOR); [10]): 96.7%; % DAMGO + BFNA (mu opiate receptor (MOR); [11]): 150.9%; % DAMGO (1 μM) (mu opiate receptor (MOR); [12]): 83.3%; Concentration of FLNA-Binding Compound as Agonist 1 μM (mu opiate receptor (MOR); [13]): 230.5%
14 | CC1CCC(C(C)C)C(OCC(O)CN2CCN(CCCN3CCOCC3)CC2)C1 (stereo not drawn) [Compound A0026] |  |  |  | 140.7% | 79.7% | 179.8% | 120.8% | 459.3% | 70.7% | 36.4% | 42.4% | 49.2% | 
15 | CC(=O)c1ccc(S(=O)(=O)N2CC(CN(C)C)OC23CCN(CC2CC2)CC3)cc1 (stereo not drawn) [Compound C0128M] |  |  |  |  |  |  |  |  |  | 46.5% | 54.4% | 58.2% | % DAMGO (0.1 μM) (mu opiate receptor (MOR); [17]): 104.5%; MOR agonist activity, percent [35S]GTPγS binding at the stated compound concentration (mu opiate receptor (MOR); [18]): 197.8%; MOR agonist activity, percent [35S]GTPγS binding at the stated compound concentration (mu opiate receptor (MOR); [19]): 63.9%; % DAMGO + BFNA (mu opiate receptor (MOR); [20]): 131.8%; % DAMGO (1 μM) (mu opiate receptor (MOR); [21]): 115.2%; MOR agonist activity, percent [35S]GTPγS binding at the stated compound concentration (mu opiate receptor (MOR); [22]): 286.0%
16 | CC1CCC(C(C)C)C(OCC(O)CN2CCOc3ccccc32)C1 (stereo not drawn) [Compound A0066] |  |  |  | 151.9% | 88.3% | 195.6% | 59.2% | 171.6% | 89.0% |  |  |  | Percent Binding Inhibition ([1]; FLNA-binding compound 0.01 μM): 36.7%; Percent Binding Inhibition ([1]; FLNA-binding compound 0.1 μM): 45.4%; Percent Binding Inhibition ([1]; FLNA-binding compound 1 μM): 53.7%
17 | CC1CCC(C(C)C)C(OCC(O)CN2CCc3ccccc32)C1 (stereo not drawn) [Compound A0065] |  |  |  | 197.6% | 126.6% | 266.8% | 44.9% | 112.5% | 115.7% |  |  |  | Percent Binding Inhibition ([1]; FLNA-binding compound 0.01 μM): 38.7%; Percent Binding Inhibition ([1]; FLNA-binding compound 0.1 μM): 50.0%; Percent Binding Inhibition ([1]; FLNA-binding compound 1 μM): 50.8%
